By melting point is commonly meant the temperature of the solid-liquid transition.

Among the data in patent US8586505B2 (SDS Biotech K. K., priority 2009, dated 2013) are pest or weed control and melting point values, retold here.

One data set has as its system Phytophthora infestans. Description: whole plant or invertebrate. As to conditions: in Solanum lycopersicum, 96 h, read-out: Determination of control effect (preventive value). It is filed as in vivo.
For data set [1], the system named is Pseudoperonospora cubensis. Kind of data set: Test of examining control effect on Pseudoperonospora cubensis (potted cucumber plants). The following applies: 96 h, 10% wettable powder adjusted to 125 ppm, 15 ml/pot sprayed on potted cucumber plants one day before spray inoculation, assessed after 1 day wet chamber and 3 days greenhouse, read-out: Determination of control effect (preventive value) on Pseudoperonospora cubensis. The format is in vivo. Put shortly:
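Cucumber plants (Sagamihanjiro, 2.5-leaf stage) sprayed with 125 ppm compound solution from 10% wettable powder, 15 ml/pot. One day later, spray-inoculated with P. cubensis conidia (1.0×10^4 cells/ml), kept 1 day at 21° C wet, then 3 days in greenhouse. Preventive value derived from lesion area relative to untreated plants.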

A further data set has as its system Sphaerotheca fuliginea. Description: Test of examining control effect on Sphaerotheca fuliginea (potted cucumber plants). The following applies: Podosphaera fuliginea, 336 h; 10% wettable powder adjusted to 125 ppm, 15 ml/pot sprayed on potted cucumber plants one day before spray inoculation; assessed after 14 days in greenhouse; read-out: Determination of control effect (preventive value) on Sphaerotheca fuliginea. The format is in vivo. Put shortly: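 Cucumber plants (Sagamihanjiro, 2nd leaf stage) sprayed with 125 ppm compound (from 10% wettable powder), inoculated one day later with S. fuliginea conidia (1.0×10^5 cells/ml); lesion area scored after 14 days in greenhouse. Preventive value vs untreated; ≥60% high, <60% low control.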

Turning to `O=[N+]([O-])c1ccc(C#CCCNc2ncnc3sccc23)cc1` [compound 40], the melting point lay within 184 to 185 °C. In addition, the pest or weed control at 125 ppm in the data set with Phytophthora infestans was in the range of 60 to 100%. Besides, in data set [1], the pest or weed control at 125 µg/mL lay in the range of 60 to 100%.

Take `C(#Cc1cccnc1)CCNc1ncnc2sccc12` [compound 56]: the melting point was in the range of 138 to 140 °C. For the same compound, the pest or weed control at 125 ppm in the data set with Phytophthora infestans lay in the range of 0 to 60%. Further, the pest or weed control at 125 µg/mL in data set [1] is 60 to 100%.

The compound `Fc1cccc(F)c1C#CCCNc1ncnc2sccc12` [compound 42] registered a melting point of 179 to 181 °C. Further, the pest or weed control at 125 ppm in the data set on Phytophthora infestans is 60 to 100%. Also, the pest or weed control at 125 µg/mL in data set [1] is 60 to 100%.

The compound `Fc1ccc(C#CCCNc2ncnc3sccc23)c(F)c1` [compound 41] returned a melting point of 177 to 178 °C. Also, the pest or weed control at 125 ppm with Phytophthora infestans lay within 60 to 100%. In addition, in data set [1], the pest or weed control at 125 µg/mL is 60 to 100%.

As for `COCc1cccc(C#CCCNc2ncnc3ccccc23)c1` [compound 135], the pest or weed control at 125 ppm in the data set on Phytophthora infestans fell in the range of 0 to 60%. For the same compound, the pest or weed control at 125 µg/mL in data set [1] fell in the range of 60 to 100%; in the data set with Sphaerotheca fuliginea, 0 to 60%.

As to `COc1nc(C#CCCNc2ncnc3sccc23)cs1` [compound 67], the pest or weed control at 125 ppm with Phytophthora infestans was in the range of 60 to 100%. The pest or weed control at 125 µg/mL (in data set [1]; with Sphaerotheca fuliginea) was 60 to 100% throughout.

As to `Fc1ccc(C#CCCNc2ncnc3ccccc23)c(C(F)(F)F)c1` [compound 169], the pest or weed control at 125 ppm in the data set with Phytophthora infestans fell in the range of 60 to 100%. Moreover, the pest or weed control at 125 µg/mL (in data set [1]; in the data set with Sphaerotheca fuliginea) was 60 to 100% in each case.

`COCc1ccccc1C#CCCNc1ncnc2ccc(-c3ccccc3)cc12` [compound 333]: the pest or weed control at 125 ppm with Phytophthora infestans is 0 to 60%. Further, the pest or weed control at 125 µg/mL was 60 to 100% in data set [1] and 0 to 60% in the data set on Sphaerotheca fuliginea.

With `CCC(CC#Cc1ccc(F)cc1C(F)(F)F)Nc1ncnc2ccccc12` (stereo not drawn) [compound 295], the pest or weed control at 125 ppm with Phytophthora infestans was 0 to 60%. The pest or weed control at 125 µg/mL (in data set [1]; in the data set on Sphaerotheca fuliginea) was 60 to 100% throughout.

Take `CC(CC#Cc1ccc(Cl)c(C(F)(F)F)c1)Nc1ncnc2ccccc12` (stereo not drawn) [compound 284]: the pest or weed control at 125 ppm with Phytophthora infestans was in the range of 0 to 60%. Also, the pest or weed control at 125 µg/mL (in data set [1]; in the data set on Sphaerotheca fuliginea) was 60 to 100% in each case.

On to `Cc1nc(C#CCC(C)Nc2ncnc3ccccc23)cs1` (stereo not drawn) [compound 292], for which, in the data set with Phytophthora infestans, the pest or weed control at 125 ppm is 60 to 100%. Further, the pest or weed control at 125 µg/mL (in data set [1]; in the data set on Sphaerotheca fuliginea) was 60 to 100% each time.

On to `C(#CC1CC1)CCNc1ncnc2ccccc12` [compound 90], for which the pest or weed control at 125 ppm in the data set with Phytophthora infestans fell in the range of 0 to 60%. For the same compound, the pest or weed control at 125 µg/mL (in data set [1]; in the data set on Sphaerotheca fuliginea) was 60 to 100% each time.

For `CN(C)S(=O)(=O)c1ccccc1C#CCCNc1ncnc2ccccc12` [compound 161], the pest or weed control at 125 ppm in the data set with Phytophthora infestans was 60 to 100%. In addition, the pest or weed control at 125 µg/mL lay within 60 to 100% in data set [1] and 0 to 60% with Sphaerotheca fuliginea.

Take `OCC(CC#Cc1ccccc1)Nc1ncnc2ccccc12` (stereo not drawn) [compound 299]: in the data set on Phytophthora infestans, the pest or weed control at 125 ppm fell in the range of 60 to 100%. Moreover, the pest or weed control at 125 µg/mL in data set [1] fell in the range of 60 to 100%; in the data set with Sphaerotheca fuliginea it was 0 to 60%.

Take `COCc1ccsc1C#CCCNc1ncnc2ccccc12` [compound 207]: the pest or weed control at 125 ppm in the data set with Phytophthora infestans lay in the range of 60 to 100%. Further, the pest or weed control at 125 µg/mL (in data set [1]; with Sphaerotheca fuliginea) was 60 to 100% each time.

On to `CCOC(=O)C(CC#Cc1ccccc1C(F)(F)F)Nc1ncnc2ccccc12` (stereo not drawn) [compound 304], for which, in the data set on Phytophthora infestans, the pest or weed control at 125 ppm was in the range of 0 to 60%. The pest or weed control at 125 µg/mL (in data set [1]; in the data set on Sphaerotheca fuliginea) was 60 to 100% in each case.

As to `CSc1ccc(C#CCCNc2ncnc3ccccc23)cc1` [compound 117], the pest or weed control at 125 ppm in the data set on Phytophthora infestans was in the range of 60 to 100%. The pest or weed control at 125 µg/mL (in data set [1]; in the data set with Sphaerotheca fuliginea) was 60 to 100% throughout.

Consider `CCOC(OCC)c1ccc(C#CCCNc2ncnc3ccccc23)cc1` [compound 151], for which the pest or weed control at 125 ppm in the data set on Phytophthora infestans was in the range of 60 to 100%. Besides, the pest or weed control at 125 µg/mL (in data set [1]; in the data set on Sphaerotheca fuliginea) was 60 to 100% in each case.

Turning to `CC(CC#Cc1ccc(Cl)cc1C(F)(F)F)Nc1ncnc2c(C(F)(F)F)cccc12` (stereo not drawn) [compound 351], in the data set with Phytophthora infestans, the pest or weed control at 125 ppm was 0 to 60%. For the same compound, the pest or weed control at 125 µg/mL (in data set [1]; in the data set with Sphaerotheca fuliginea) was 60 to 100% in each case.

For `Cc1cc(Cl)ccc1C#CCC(C)Nc1ncnc2sccc12` (stereo not drawn) [compound 250], the pest or weed control at 125 ppm in the data set with Phytophthora infestans lay in the range of 60 to 100%. Moreover, the pest or weed control at 125 µg/mL (in data set [1]; in the data set with Sphaerotheca fuliginea) was 60 to 100% throughout.
